What was measured:
CD73 [1] = molecular target: T1, CD73 (Homo sapiens (Human), UniProt P21589); assay: Cellular CD73 Assay (primary human CD3+ T-cells with AMP); type: cell-based; details: primary human peripheral blood CD3+ T-cells, 40 μM AMP, 3 days; readout (cell division or IL-2/IFN-γ) not specified for the column
Procedure: Primary human peripheral blood CD3+ T-cells obtained from AllCells were thawed and cultured for 24 h in a complete growth medium (Stemline T-cell expansion medium, Sigma #S1694) supplemented with 1 mM L-glutamine, 50 IU/mL of IL-2 and 25 μL/mL of Dynabeads™ Human T-Activator CD3/CD28 (Thermo-Fisher #11161D) at a density of 10^6 cells/mL. Then, cells were labeled with 1.25 μM Cell Trace Violet (Thermo-Fisher #C34557) according to the manufacturer's instructions. Labeled cells were resuspended in a warm complete growth medium and plated onto U-bottom 96-well plates at 25,000 cells/90 μL/well. Next, 500× serial compound dilutions were prepared in DMSO in a 8-point 3-fold titration and then diluted 1:25 into a complete growth medium, generating 20× compound dilutions. Then, 5 μL of 20× compound dilutions was added to the cells and incubated for 60 min at 37° C. After this, 5 μL of 20×AMP was added to a final concentration of 40 μM. Treated cells were cultured for 3 days at 37° C., 5% CO2. Thereafter, cells were gently pelleted by centrifugation, and supernatants were collected and frozen at −80° C. for subsequent cytokine analysis. Cell pellets were resuspended in 100 μL of PBS/2% FBS and gently pipetted up and down to produce a single cell suspension. Then, 3 μL of 7-AAD (BD Biosciences #559925) was added to each well and plates were incubated on ice for 5 min. Cells were then washed and resuspended in 150 μL of PBS/2% FBS. Divided and non-divided live cells were quantified by Attune NxT flow cytometer. Cell Trace Violet-labeled cells cultured without a T-cell activator were used as the nondividing control.
For IL-2 and IFN-γ cytokine analysis, supernatants were thawed on ice, diluted 1:10 in the buffer. The concentration of cytokines was determined using Meso Scale Discovery according to the manufacturer's instructions (Meso Scale Discovery). The EC50 values were determined using a four-parameter nonlinear regression curve fit (GraphPad Prism Version 9.2, GraphPad Software Inc., San Diego, CA).

CD73 [2] = molecular target: T1, CD73; assay: Biochemical CD73 Assay (Malachite Green free phosphate detection); details: recombinant human CD73 2 nM, AMP 40 μM, 45 min at 37° C.
Procedure: Activity of recombinant CD73 was measured by quantification of free phosphate using the Malachite Green detection system (R&D Systems #DY996). Test compounds were solubilized in DMSO and dispensed into 384-well polystyrene plates in a 8-point 3× titration in duplicates. Then, 10 μL of 4 nM human CD73 enzyme (Novoprotein #C446) in phosphate-free assay buffer (10 mM HEPES, pH 7.4, 125 mM NaCl, 1 mM KCl, 10 mM glucose, 2 mM MgCl2) was added to the plates. The compound and enzyme were incubated for 15 min at RT. Then, 10 μL of 80 μM AMP (Sigma Aldrich #A1752) in the assay buffer was added and the reaction mixture was incubated for 45 min at 37° C. The final concentrations of CD73 and AMP in the reaction were 2 nM and 40 μM, respectively. The reaction was stopped by adding 5 μL of Malachite Green reagent A and incubating for 10 min at RT, followed by addition of 5 μL of Malachite Green reagent B and incubation for 20 min at RT. Absorbance was then read at 620 nm with the Flexstation spectrophotometer (Molecular Devices). The IC50 values were determined using a four-parameter nonlinear regression curve fit.

T1 sequence (P21589 27-574): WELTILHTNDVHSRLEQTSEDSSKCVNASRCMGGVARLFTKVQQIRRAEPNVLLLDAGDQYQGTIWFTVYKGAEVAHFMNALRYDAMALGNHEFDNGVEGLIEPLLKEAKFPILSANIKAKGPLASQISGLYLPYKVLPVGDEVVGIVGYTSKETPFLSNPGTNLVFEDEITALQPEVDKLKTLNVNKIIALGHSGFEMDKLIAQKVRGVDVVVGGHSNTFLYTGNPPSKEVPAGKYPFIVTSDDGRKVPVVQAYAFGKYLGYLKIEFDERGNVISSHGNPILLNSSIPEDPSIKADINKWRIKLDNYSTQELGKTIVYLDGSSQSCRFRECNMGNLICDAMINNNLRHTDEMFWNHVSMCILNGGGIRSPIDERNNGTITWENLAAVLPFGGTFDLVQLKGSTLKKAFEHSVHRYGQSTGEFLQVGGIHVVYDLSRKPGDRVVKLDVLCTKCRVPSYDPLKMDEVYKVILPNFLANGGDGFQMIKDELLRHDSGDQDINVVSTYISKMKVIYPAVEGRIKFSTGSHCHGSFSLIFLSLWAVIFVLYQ

Compound	EC50 (CD73 [1])	IC50 (CD73 [2])
CCC(=O)NS(C)(=O)=NC(=O)[C@@](COC)(OC[C@H]1O[C@@H](n2ncc3c(NC4CCCC4)nc(Cl)nc32)[C@H](O)[C@@H]1O)P(=O)(O)O (stereo partly drawn) [Example 13, ((2S)-2-(((2R,3S,4R,5R)-5-(6-Chloro-4-(cyclopentylamino)-1H-pyrazolo[3,4-d]pyrimidin-1-yl)-3,4-dihydroxytetrahydrofuran-2-yl)methoxy)-3-methoxy-1-((methyl(oxo)(propionamido)-λ^6-sulfaneylidene)amino)-1-oxopropan-2-yl)phosphonic Acid]	0.68 nM	0.7 nM
COC[C@@](OC[C@H]1O[C@@H](n2ncc3c(NC4CCCC4)nc(Cl)nc32)[C@H](O)[C@@H]1O)(C(=O)N=S(C)(=O)NC(=O)C(C)C)P(=O)(O)O (single isomer, unassigned) [Example 15]	7.78 nM	6.3 nM
COC[C@@](OC[C@H]1O[C@@H](n2ncc3c(NC4CCCC4)nc(Cl)nc32)[C@H](O)[C@@H]1O)(C(=O)N=[S@](C)(=O)NC(=O)C1CC1)P(=O)(O)O [Example 12, ((S)-2-(((2R,3S,4R,5R)-5-(6-Chloro-4-(cyclopentylamino)-1H-pyrazolo[3,4-d]pyrimidin-1-yl)-3,4-dihydroxytetrahydrofuran-2-yl)methoxy)-1-(((S)-cyclopropanecarboxamido(methyl)(oxo)-λ^6-sulfaneylidene)amino)-3-methoxy-1-oxopropan-2-yl)phosphonic Acid]	0.92 nM	0.45 nM

Reference: patent publication US20240140980A1, “HETEROCYCLIC INHIBITORS OF CD73 FOR TREATMENT OF DISEASE” (Teon Therapeutics, Inc., priority 2022, published 2024)
